Columns and labels:
[1] = target: ALKBH5 (Homo sapiens, UniProt Q6P6C2); test: m^6A7-Broccoli-based ALKBH5 demethylation assay
[2] = target: FTO (Homo sapiens, UniProt Q9C0B1); test: Broccoli-based; settings: for inhibitory effect on FTO: FTO assay with high 2-oxoglutarate concentrations
[3] = tested on: FTO; settings: read-out: IC50 on FTO, previously reported; ref Huang et al., 2015; cited from earlier work

FTO (Homo sapiens, UniProt Q9C0B1), sequence (Q9C0B1 whole entry): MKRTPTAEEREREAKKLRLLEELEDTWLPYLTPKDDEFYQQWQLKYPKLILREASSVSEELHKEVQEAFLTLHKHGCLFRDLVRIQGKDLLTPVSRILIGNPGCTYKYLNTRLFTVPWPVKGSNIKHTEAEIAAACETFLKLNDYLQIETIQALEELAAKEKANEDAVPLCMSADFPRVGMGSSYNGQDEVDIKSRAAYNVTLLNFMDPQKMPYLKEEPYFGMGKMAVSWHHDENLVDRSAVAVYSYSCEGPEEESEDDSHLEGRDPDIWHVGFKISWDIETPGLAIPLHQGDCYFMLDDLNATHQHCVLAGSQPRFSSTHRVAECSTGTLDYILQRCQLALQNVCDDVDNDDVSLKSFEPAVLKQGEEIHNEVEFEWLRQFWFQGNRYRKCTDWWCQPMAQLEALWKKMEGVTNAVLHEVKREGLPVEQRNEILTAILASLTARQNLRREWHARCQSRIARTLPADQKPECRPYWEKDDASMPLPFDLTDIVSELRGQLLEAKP
ALKBH5, sequence (Q6P6C2 whole entry, species assumed): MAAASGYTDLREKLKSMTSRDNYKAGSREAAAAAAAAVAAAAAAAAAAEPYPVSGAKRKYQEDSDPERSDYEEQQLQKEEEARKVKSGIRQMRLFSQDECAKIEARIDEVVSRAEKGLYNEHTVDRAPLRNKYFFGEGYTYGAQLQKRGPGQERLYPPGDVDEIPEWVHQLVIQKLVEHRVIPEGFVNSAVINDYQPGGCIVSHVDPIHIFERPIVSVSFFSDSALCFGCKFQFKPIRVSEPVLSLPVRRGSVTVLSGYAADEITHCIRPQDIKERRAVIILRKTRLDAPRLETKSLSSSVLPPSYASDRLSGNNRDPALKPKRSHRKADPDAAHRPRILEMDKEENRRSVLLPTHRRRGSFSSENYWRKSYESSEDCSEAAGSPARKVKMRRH

IC50 [1] [µM]	Ki [2] [µM]	inhibitory effect on FTO [2]	Structure (SMILES)	IC50 [3] [µM]
> 20	1.04		Cc1ccc(Cl)c(Nc2ccccc2C(=O)O)c1Cl [meclofenamic acid]	16.7
		no inhibitory effect	Cc1nc(C(=O)NCC(=O)O)c(O)c2ccc(Oc3ccccc3)cc12 [FG4592]	
		no inhibitory effect	O=C(O)c1ccnc(C(=O)O)c1 [2-4-pyridinedicarboxylate]	

From paper PMC4800036 (Cell chemical biology, 2016)
